Common to all, as to assay type: in vivo
Assay [1] relates to Abutilon theophrasti. Nature of the assay: Pre-emergence test. As to conditions: 3 weeks after treatment. On the procedure:
(§1) To evaluate their herbicidal activity, compounds according to the invention are tested using a representative range of plants: ABUTH Abutilon theophrasti The pre-emergence tests involve spraying a liquid formulation of the compound onto the soil in which the seeds of the plant species mentioned above has recently been sown. The soil used in the tests is a prepared horticultural loam. The formulations used in the tests are prepared from solutions of the test compounds in acetone containing 0.4% by weight of an alkylphenol/ethylene oxide condensate available under the trade mark TRITON X-155. These acetone solutions are diluted with water and the resulting formulations applied at dosage levels corresponding to 0.025 kg, 0.100 kg or 0.400 kg of active material per hectare in a volume equivalent to 900 litres per hectare. In these tests untreated sown soil are used as controls. From 2 to 4 weeks after treatment, the tests are terminated and each pot is examined and rated according to the rating system set forth below: [table]

In assay [2] the test system is Ipomoea hederacea. Nature of the assay: Pre-emergence test. As to conditions: 3 weeks after treatment. As to the method:
as §1, with “IPHOE Ipomoea hederacea” for “ABUTH Abutilon theophrasti”

Assay [3] concerns Ipomoea hederacea. Briefly: Post-emergence test. The note with it: 2-4 weeks after treatment. On the procedure:
(§2) To evaluate their herbicidal activity, compounds according to the invention are tested using a representative range of plants: IPHOE Ipomoea hederacea [table] […] These acetone solutions are diluted with water and the resulting formulations applied at dosage levels equivalent of about 0.1 to 0. 4 kg per hectare of test compound per pot. After spraying the plants are placed on greenhouse benches and are cared for in the usual manner, commensurate with conventional greenhouse practices. From 2 to 4 weeks after treatment, the seedling plants are examined and rated according to the rating system provided above.

Assay [4] deals with Alopecurus myosuroides. Nature of the assay: Post-emergence test. As to conditions: 2-4 weeks after treatment. As to the method:
as §2, with “ALOMY Alopecurus myosuroides” for “IPHOE Ipomoea hederacea”

The test system of assay [5] is Echinochloa crus-galli. Nature of the assay: Post-emergence test. As to conditions: 2-4 weeks after treatment. As to the method:
as §2, with “ECHCG Echinochloa crus-galli” for “IPHOE Ipomoea hederacea”

The subject of assay [6] is Setaria viridis. Briefly: Post-emergence test. The note with it: 2-4 weeks after treatment. On the procedure:
as §2, with “SETVI Setaria viridis” for “IPHOE Ipomoea hederacea”

Assay [7] has as its system Glycine max. Briefly: Post-emergence test. As to conditions: 2-4 weeks after treatment. As to the method:
To evaluate their herbicidal activity, compounds according to the invention are tested using a representative range of plants:
These acetone solutions are diluted with water and the resulting formulations applied at dosage levels equivalent of about 0.1 to 0. 4 kg per hectare of test compound per pot. After spraying the plants are placed on greenhouse benches and are cared for in the usual manner, commensurate with conventional greenhouse practices. From 2 to 4 weeks after treatment, the seedling plants are examined and rated according to the rating system provided above.

For assay [8], the system named is Triticum aestivum. Briefly: Post-emergence test. As to conditions: 2-4 weeks after treatment. On the procedure: as §2, with “TRZAW Triticum aestivum” for “IPHOE Ipomoea hederacea”
Assay [9] deals with Zea mays. Briefly: Post-emergence test. As to conditions: 2-4 weeks after treatment. As to the method: as §2, with “ZEAMX Zea mays” for “IPHOE Ipomoea hederacea”

SMILES strings stand for the structures.

Turning to `Cn1nc(C(F)(F)F)cc1Oc1cc(C#N)cc(-c2cc(C(F)(F)F)nn2C)n1` [Example 3, 4-Cyano-2-(1-methyl-3-trifluoromethylpyrazol-5-yloxy)-6-(1-methyl-3-trifluoromethylpyrazol-5-yl)pyridine], the ABUTH herbicidal rating in [1] (0.025 kg/ha) is 1 (1 - Trace effect); in assay [1] (0.100 kg/ha) it was 5 (5 - Definite injury); in [1] (0.400 kg/ha) it was 8 (8 - Approaching complete kill). Moreover, the IPOHE herbicidal rating in [2] (0.025 kg/ha) is on record as 2 (2 - Slight effect); in assay [2] (0.100 kg/ha), 2 (2 - Slight effect); in [2] (0.400 kg/ha) it was 9 (9 - Complete kill); in assay [3] (0.1 kg/ha), 6 (6 - Herbicidal effect); in assay [3] (0.4 kg/ha) it was 8 (8 - Approaching complete kill). For the same molecule, the ALOMY herbicidal rating in assay [4] (0.1 kg/ha) is reported as 3 (3 - Moderate effect); in [4] (0.4 kg/ha) it was 4 (4 - Injury). The ECHCG herbicidal rating in assay [5] (0.1 kg/ha) and in assay [5] (0.4 kg/ha) was 4 (4 - Injury) throughout. Moreover, the SETVI herbicidal rating is listed as 5 (5 - Definite injury) in assay [6] (0.1 kg/ha) and 7 (7 - Good herbicidal effect) in assay [6] (0.4 kg/ha). Further, the values for the GLXMA herbicidal rating in assay [7] (0.1 kg/ha) and in [7] (0.4 kg/ha) were 3 (3 - Moderate effect) and 4 (4 - Injury), respectively. Also, the TRZAW herbicidal rating in assay [8] (0.1 kg/ha) is 3 (3 - Moderate effect); in [8] (0.4 kg/ha), 4 (4 - Injury). Besides, the ZEAMX herbicidal rating in assay [9] (0.1 kg/ha) was 2 (2 - Slight effect); in assay [9] (0.4 kg/ha), 4 (4 - Injury).
As to `Cc1cnc(-c2cc(C(F)(F)F)nn2C)nc1Oc1cc(C(F)(F)F)nn1C` [Example 4, 2-(1-Methyl-3-trifluoromethylpyrazol-5-yl)-6-(1-methyl-3-trifluoromethylpyrazol-5-yloxy)-5-methylpyrimidine], the ABUTH herbicidal rating in assay [1] (0.025 kg/ha) is recorded as 4 (4 - Injury); in [1] (0.100 kg/ha), 7 (7 - Good herbicidal effect); in assay [1] (0.400 kg/ha) it was 9 (9 - Complete kill). Moreover, the IPOHE herbicidal rating in assay [2] (0.025 kg/ha) is 4 (4 - Injury); in assay [2] (0.100 kg/ha), 6 (6 - Herbicidal effect); in [2] (0.400 kg/ha), 9 (9 - Complete kill); in assay [3] (0.1 kg/ha) it was 9 (9 - Complete kill); in assay [3] (0.4 kg/ha), 9 (9 - Complete kill). Besides, the ALOMY herbicidal rating in assay [4] (0.1 kg/ha) is 5 (5 - Definite injury); in assay [4] (0.4 kg/ha) it was 7 (7 - Good herbicidal effect). The ECHCG herbicidal rating in [5] (0.1 kg/ha) and in [5] (0.4 kg/ha) was 8 (8 - Approaching complete kill) throughout. In addition, the SETVI herbicidal rating in assay [6] (0.1 kg/ha) and in assay [6] (0.4 kg/ha) was 9 (9 - Complete kill) throughout. The GLXMA herbicidal rating in assay [7] (0.1 kg/ha) is 4 (4 - Injury); in assay [7] (0.4 kg/ha), 6 (6 - Herbicidal effect). Moreover, the TRZAW herbicidal rating is recorded as 3 (3 - Moderate effect) in assay [8] (0.1 kg/ha) and 5 (5 - Definite injury) in [8] (0.4 kg/ha). The ZEAMX herbicidal rating in assay [9] (0.1 kg/ha) is 2 (2 - Slight effect); in assay [9] (0.4 kg/ha), 4 (4 - Injury).
With `Cc1cc(Oc2cccc(C(F)(F)F)c2)nc(-c2cc(C(F)(F)F)nn2C)c1` [Example 63], the ABUTH herbicidal rating in assay [1] (0.100 kg/ha) was 0 (0 - No effect); in assay [1] (0.400 kg/ha) it was 2 (2 - Slight effect). The IPOHE herbicidal rating was 0 (0 - No effect) in assay [2] (0.025 kg/ha); 0 (0 - No effect) in assay [2] (0.100 kg/ha); 3 (3 - Moderate effect) in [2] (0.400 kg/ha); 8 (8 - Approaching complete kill) in [3] (0.1 kg/ha); 8 (8 - Approaching complete kill) in assay [3] (0.4 kg/ha). Moreover, the ALOMY herbicidal rating in assay [4] (0.1 kg/ha) is on record as 1 (1 - Trace effect); in assay [4] (0.4 kg/ha) it was 2 (2 - Slight effect). In addition, the ECHCG herbicidal rating in [5] (0.1 kg/ha) and in assay [5] (0.4 kg/ha) was 3 (3 - Moderate effect) throughout. Also, the SETVI herbicidal rating in [6] (0.1 kg/ha) was 3 (3 - Moderate effect); in assay [6] (0.4 kg/ha), 6 (6 - Herbicidal effect). In addition, the GLXMA herbicidal rating in assay [7] (0.1 kg/ha) was 3 (3 - Moderate effect); in assay [7] (0.4 kg/ha), 7 (7 - Good herbicidal effect). In addition, the TRZAW herbicidal rating in assay [8] (0.1 kg/ha) and in [8] (0.4 kg/ha) was 3 (3 - Moderate effect) in each case. In addition, the ZEAMX herbicidal rating in [9] (0.1 kg/ha) was 2 (2 - Slight effect); in [9] (0.4 kg/ha) it was 3 (3 - Moderate effect).

(Values after patent publication US6528456B2, “Herbicidal 2-pyrazolyl-6-aryloxypyri(mi)dines” (BASF Aktiengesellschaft, priority 1999, dated 2003).)
